Measured values as given in ChEMBL document CHEMBL5724914, “Linking interpersonal differences in gut microbiota composition and drug biotransformation activity” (2024).

Conditions: human gut metagenome, 24 h, 2 µM
Note: call rule not given here.

| SMILES | Bacterial Biotransformation |
| --- | --- |
| CN1CCC[C@@H]1CCO[C@](C)(c1ccccc1)c1ccc(Cl)cc1.O=C(O)/C=C/C(=O)O [CLEMASTINE FUMARATE] | Compound metabolized |
| CC(C)(C)NCC(O)c1cc(Cl)c(N)c(Cl)c1 (stereo not given) [CLENBUTEROL] | Compound NOT metabolized |

Conditions: human gut metagenome, 24 h, 2 µM
Remark: another data set of the same source

| SMILES | Bacterial Biotransformation |
| --- | --- |
| CN1CCC[C@@H]1CCO[C@](C)(c1ccccc1)c1ccc(Cl)cc1.O=C(O)/C=C/C(=O)O [CLEMASTINE FUMARATE] | Compound NOT metabolized |
| CC(C)(C)NCC(O)c1cc(Cl)c(N)c(Cl)c1 (stereo not given) [CLENBUTEROL] | Compound NOT metabolized |

Experiment: (§1) The drug is tested on Z-020 corresponding to rabbit gut metagenome with ENA study accession number: PRJEB37062 and ENA sample accession number: ERS12561819 for biotransformation under anaerobic condition. The drug concentrations were measured over 9 timepoints collected between 0 and 24 hours of incubation by liquid-chromatography-coupled mass spectrometry (LC–MS)
Conditions: 2 µM

| SMILES | Bacterial Biotransformation |
| --- | --- |
| CN1CCC[C@@H]1CCO[C@](C)(c1ccccc1)c1ccc(Cl)cc1.O=C(O)/C=C/C(=O)O [CLEMASTINE FUMARATE] | Compound NOT metabolized |
| CC(C)(C)NCC(O)c1cc(Cl)c(N)c(Cl)c1 (stereo not given) [CLENBUTEROL] | Compound NOT metabolized |

Conditions: human gut metagenome, 24 h, 2 µM
Remark: another data set of the same source

| SMILES | Bacterial Biotransformation |
| --- | --- |
| CN1CCC[C@@H]1CCO[C@](C)(c1ccccc1)c1ccc(Cl)cc1.O=C(O)/C=C/C(=O)O [CLEMASTINE FUMARATE] | Compound NOT metabolized |
| CC(C)(C)NCC(O)c1cc(Cl)c(N)c(Cl)c1 (stereo not given) [CLENBUTEROL] | Compound NOT metabolized |

Conditions: human gut metagenome, 24 h, 2 µM
Remark: another data set of the same source

| SMILES | Bacterial Biotransformation |
| --- | --- |
| CN1CCC[C@@H]1CCO[C@](C)(c1ccccc1)c1ccc(Cl)cc1.O=C(O)/C=C/C(=O)O [CLEMASTINE FUMARATE] | Compound metabolized |
| CC(C)(C)NCC(O)c1cc(Cl)c(N)c(Cl)c1 (stereo not given) [CLENBUTEROL] | Compound NOT metabolized |

Conditions: human gut metagenome, 24 h, 2 µM
Remark: another data set of the same source

| SMILES | Bacterial Biotransformation |
| --- | --- |
| CN1CCC[C@@H]1CCO[C@](C)(c1ccccc1)c1ccc(Cl)cc1.O=C(O)/C=C/C(=O)O [CLEMASTINE FUMARATE] | Compound metabolized |
| CC(C)(C)NCC(O)c1cc(Cl)c(N)c(Cl)c1 (stereo not given) [CLENBUTEROL] | Compound NOT metabolized |

Experiment: as §1, with “WLS-007” for “Z-020”, “human” for “rabbit”, “ERS12561742” for “ERS12561819”
Conditions: 2 µM

| SMILES | Bacterial Biotransformation |
| --- | --- |
| CN1CCC[C@@H]1CCO[C@](C)(c1ccccc1)c1ccc(Cl)cc1.O=C(O)/C=C/C(=O)O [CLEMASTINE FUMARATE] | Compound NOT metabolized |
| CC(C)(C)NCC(O)c1cc(Cl)c(N)c(Cl)c1 (stereo not given) [CLENBUTEROL] | Compound NOT metabolized |

Conditions: human gut metagenome, 24 h, 2 µM
Remark: another data set of the same source

| SMILES | Bacterial Biotransformation |
| --- | --- |
| CN1CCC[C@@H]1CCO[C@](C)(c1ccccc1)c1ccc(Cl)cc1.O=C(O)/C=C/C(=O)O [CLEMASTINE FUMARATE] | Compound metabolized |
| CC(C)(C)NCC(O)c1cc(Cl)c(N)c(Cl)c1 (stereo not given) [CLENBUTEROL] | Compound NOT metabolized |

Conditions: human gut metagenome, 24 h, 2 µM
Remark: another data set of the same source

| SMILES | Bacterial Biotransformation |
| --- | --- |
| CN1CCC[C@@H]1CCO[C@](C)(c1ccccc1)c1ccc(Cl)cc1.O=C(O)/C=C/C(=O)O [CLEMASTINE FUMARATE] | Compound NOT metabolized |
| CC(C)(C)NCC(O)c1cc(Cl)c(N)c(Cl)c1 (stereo not given) [CLENBUTEROL] | Compound NOT metabolized |

Experiment: as §1, with “Z-003” for “Z-020”, “pig” for “rabbit”, “ERS12561803” for “ERS12561819”
Conditions: 2 µM

| SMILES | Bacterial Biotransformation |
| --- | --- |
| CN1CCC[C@@H]1CCO[C@](C)(c1ccccc1)c1ccc(Cl)cc1.O=C(O)/C=C/C(=O)O [CLEMASTINE FUMARATE] | Compound NOT metabolized |
| CC(C)(C)NCC(O)c1cc(Cl)c(N)c(Cl)c1 (stereo not given) [CLENBUTEROL] | Compound NOT metabolized |

Experiment: as §1, with “Z-030” for “Z-020”, “mouse” for “rabbit”, “ERS12561829” for “ERS12561819”
Conditions: 2 µM

| SMILES | Bacterial Biotransformation |
| --- | --- |
| CN1CCC[C@@H]1CCO[C@](C)(c1ccccc1)c1ccc(Cl)cc1.O=C(O)/C=C/C(=O)O [CLEMASTINE FUMARATE] | Compound NOT metabolized |
| CC(C)(C)NCC(O)c1cc(Cl)c(N)c(Cl)c1 (stereo not given) [CLENBUTEROL] | Compound NOT metabolized |

Conditions: human gut metagenome, 24 h, 2 µM
Remark: another data set of the same source

| SMILES | Bacterial Biotransformation |
| --- | --- |
| CN1CCC[C@@H]1CCO[C@](C)(c1ccccc1)c1ccc(Cl)cc1.O=C(O)/C=C/C(=O)O [CLEMASTINE FUMARATE] | Compound metabolized |
| CC(C)(C)NCC(O)c1cc(Cl)c(N)c(Cl)c1 (stereo not given) [CLENBUTEROL] | Compound NOT metabolized |

Conditions: human gut metagenome, 24 h, 2 µM
Remark: another data set of the same source

| SMILES | Bacterial Biotransformation |
| --- | --- |
| CN1CCC[C@@H]1CCO[C@](C)(c1ccccc1)c1ccc(Cl)cc1.O=C(O)/C=C/C(=O)O [CLEMASTINE FUMARATE] | Compound metabolized |
| CC(C)(C)NCC(O)c1cc(Cl)c(N)c(Cl)c1 (stereo not given) [CLENBUTEROL] | Compound NOT metabolized |

Experiment: as §1, with “WLS-310” for “Z-020”, “human” for “rabbit”, “ERS12561785” for “ERS12561819”
Conditions: 2 µM

| SMILES | Bacterial Biotransformation |
| --- | --- |
| CN1CCC[C@@H]1CCO[C@](C)(c1ccccc1)c1ccc(Cl)cc1.O=C(O)/C=C/C(=O)O [CLEMASTINE FUMARATE] | Compound metabolized |
| CC(C)(C)NCC(O)c1cc(Cl)c(N)c(Cl)c1 (stereo not given) [CLENBUTEROL] | Compound NOT metabolized |

Experiment: as §1, with “Z-008” for “Z-020”, “to” for “to rabbit gut”, “ERS12561808” for “ERS12561819”
Conditions: 2 µM

| SMILES | Bacterial Biotransformation |
| --- | --- |
| CN1CCC[C@@H]1CCO[C@](C)(c1ccccc1)c1ccc(Cl)cc1.O=C(O)/C=C/C(=O)O [CLEMASTINE FUMARATE] | Compound NOT metabolized |
| CC(C)(C)NCC(O)c1cc(Cl)c(N)c(Cl)c1 (stereo not given) [CLENBUTEROL] | Compound NOT metabolized |

Experiment: as §1, with “WLS-077” for “Z-020”, “human” for “rabbit”, “ERS12561750” for “ERS12561819”
Conditions: 2 µM

| SMILES | Bacterial Biotransformation |
| --- | --- |
| CN1CCC[C@@H]1CCO[C@](C)(c1ccccc1)c1ccc(Cl)cc1.O=C(O)/C=C/C(=O)O [CLEMASTINE FUMARATE] | Compound NOT metabolized |
| CC(C)(C)NCC(O)c1cc(Cl)c(N)c(Cl)c1 (stereo not given) [CLENBUTEROL] | Compound NOT metabolized |

Conditions: human gut metagenome, 24 h, 2 µM
Remark: another data set of the same source

| SMILES | Bacterial Biotransformation |
| --- | --- |
| CN1CCC[C@@H]1CCO[C@](C)(c1ccccc1)c1ccc(Cl)cc1.O=C(O)/C=C/C(=O)O [CLEMASTINE FUMARATE] | Compound NOT metabolized |
| CC(C)(C)NCC(O)c1cc(Cl)c(N)c(Cl)c1 (stereo not given) [CLENBUTEROL] | Compound NOT metabolized |

Experiment: as §1, with “Z-026” for “Z-020”, “to” for “to rabbit gut”, “ERS12561825” for “ERS12561819”
Conditions: 2 µM

| SMILES | Bacterial Biotransformation |
| --- | --- |
| CN1CCC[C@@H]1CCO[C@](C)(c1ccccc1)c1ccc(Cl)cc1.O=C(O)/C=C/C(=O)O [CLEMASTINE FUMARATE] | Compound NOT metabolized |
| CC(C)(C)NCC(O)c1cc(Cl)c(N)c(Cl)c1 (stereo not given) [CLENBUTEROL] | Compound NOT metabolized |

Experiment: as §1, with “WLS-220” for “Z-020”, “human” for “rabbit”, “ERS12561769” for “ERS12561819”
Conditions: 2 µM

| SMILES | Bacterial Biotransformation |
| --- | --- |
| CN1CCC[C@@H]1CCO[C@](C)(c1ccccc1)c1ccc(Cl)cc1.O=C(O)/C=C/C(=O)O [CLEMASTINE FUMARATE] | Compound NOT metabolized |
| CC(C)(C)NCC(O)c1cc(Cl)c(N)c(Cl)c1 (stereo not given) [CLENBUTEROL] | Compound NOT metabolized |

Conditions: human gut metagenome, 24 h, 2 µM
Remark: another data set of the same source

| SMILES | Bacterial Biotransformation |
| --- | --- |
| CN1CCC[C@@H]1CCO[C@](C)(c1ccccc1)c1ccc(Cl)cc1.O=C(O)/C=C/C(=O)O [CLEMASTINE FUMARATE] | Compound metabolized |
| CC(C)(C)NCC(O)c1cc(Cl)c(N)c(Cl)c1 (stereo not given) [CLENBUTEROL] | Compound NOT metabolized |
